In US10450585B2, “Delivery methods and compositions for nuclease-mediated genome engineering” (Sangamo Therapeutics, Inc., priority 2015, dated 2019):

Key:
[1] = system: Hep3B (human hepatoma cell line) cells; experiment: AAV2/6 delivery of albumin ZFNs to Hep3B cells after growth factor receptor inhibitor pre-incubation; % indels by deep sequencing; type: cell-based; conditions: serum-free pre-incubation, AAV2/6 albumin ZFNs MOI 3e4 vg/cell
Protocol: In order to test the relative contribution of co-receptors to AAV transduction, inhibitors against epidermal growth factor receptor (EGFR), hepatocyte growth factor receptor (HGFR), fibroblast growth factor receptor (FGFR) and platelet-derived growth factor receptor (PDGFR) were used prior to in vitro AAV2/6 transduction experiments in Hep3B (human hepatoma cell line) cells using zinc-finger nucleases (ZFNs) targeting the human albumin locus. Hep3B cells were plated at a density of 1×10^5 cells per well in a 48-well tissue culture plate in 300 μL complete growth media the day before transduction with AAV2/6. On the morning of transduction, the cells were washed three times with serum-free media and incubated in the serum-free media for three hours. Growth factor receptor inhibitors were added to the wells and incubated for one hour. AAV2/6 particles to deliver ZFNs targeted to the albumin locus were then added to the wells. After three hours, serum was added to the wells to a final concentration of 10%. The cells were harvested on day 4 post-transduction. Genomic DNA was extracted and analyzed by deep sequencing (MiSeq) at the albumin locus. The growth factor receptor inhibitors used are shown below in Table 1, and they were used in the experiment in the concentrations indicated in FIG. 3, where each inhibitor is labeled by its target.

[2] = system: human patient-derived primary hepatocytes; experiment: AAV2/6 ZFN transduction of primary hepatocytes with PDGFR inhibitor; % indels; type: cell-based; conditions: 9 μM
Protocol: For human hepatocytes, 48-well cell culture dishes were purchased pre-coated with collagen (Life Technologies). Plates were incubated for 1 hour at 37° C. Thawing/plating media was prepared by combining 18 mL InVitroGRO CP medium (BioreclamationIVT) and 400 μL Torpedo antibiotic mix (Celsis In Vitro Technologies). Once the plates were prepared, the plate-able human hepatocytes (Lot# AKB), were transferred from the liquid nitrogen vapor phase directly into the 37° C. water bath and thawed under gently stirring. The cells were transferred directly into a 50 ml conical tube containing 5 mL of pre-warmed thawing/plating medium. To retrieve all the cells, the vial was washed with 1 mL of thawing/plating medium, which was added to the cells. Following resuspension of the cells, a small aliquot (20 μL) was removed to perform a cell count and to determine cell viability using trypan blue solution (1:5; Corning, Cat#25-900-C1). The cells were then centrifuged at 75×g for 5 minutes, the supernatant was removed and the cells were resuspended at 1e6 cells/mL. Cells were seeded at 3e5 cells/well in the coated 48-well plates. Cells were then incubated in a 37° C./5% CO2 incubator.
One day after the cells were plated, cells were switched to HCM maintenance medium (Lonza, HBM and HCM SingleQuots). […] Genomic DNA was extracted and analyzed by deep sequencing (MiSeq) at the albumin locus.

SMILES	AAV transduction compared to control (% indels) [1]	indels detected as compared to no inhibitor [2]
CCN1CCN(c2ccc(Nc3cc(N(C)C(=O)Nc4c(Cl)c(OC)cc(OC)c4Cl)ncn3)cc2)CC1 [FGFRi, BGJ398]	mild stimulation	
COc1cc2ncnc(Nc3ccc(F)c(Cl)c3)c2cc1OCCCN1CCOCC1 [EGFRi, Gefitinib]	mild inhibition	
CC1(COc2ccc3c(c2)ncn3-c2ccc3cccc(N4CCC(N)CC4)c3n2)COC1 [Crenolanib]		large increase
Cc1[nH]c(/C=C2\C(=O)Nc3ccc(S(=O)(=O)N(C)c4cccc(Cl)c4)cc32)c(C)c1C(=O)N1CCN(C)CC1 [HGFRi, SU11274]	mild stimulation	
